Data as given in PubChem BioAssay AID588624 (NMMLSC, 2011).
Active and inactive are the calls of the source.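 How the source made its calls: active means half-maximal concentration at most 10 µM with response span of at least 30% and a trustworthy curve fit; inactive means the rest.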

Target: Cell division control protein 42 homolog (Homo sapiens) (UniProt P60953)
Assay: inhibitors of activated Cdc42 GTP binding, SAR follow-up, selectivity assay for Rab7 inhibitor project, biochemical, activated mutant, bead multiplex, flow cytometry, round 2 (AID 588624)
Settings: GST-Cdc42 act beads, Bodipy-GTP binding; for percent response of GTP binding: at 100 µM (top of the series)

Chain of Cell division control protein 42 homolog (Homo sapiens) (P60953 whole entry, looked up): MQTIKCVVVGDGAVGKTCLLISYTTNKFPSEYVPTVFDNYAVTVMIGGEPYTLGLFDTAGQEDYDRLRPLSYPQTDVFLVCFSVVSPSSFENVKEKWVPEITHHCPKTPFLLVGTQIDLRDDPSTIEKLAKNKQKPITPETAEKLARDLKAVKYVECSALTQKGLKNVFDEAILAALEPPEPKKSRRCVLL

Compound `CCC1(C)Cc2c(sc(NC(=S)NC(=O)c3ccccc3)c2C(=O)O)CO1` (centres undefined) has an EC50 of 177 nM.

In the case of `CC1(C)Cc2c(sc(NC(=S)NC(=O)c3ccco3)c2C(=O)O)CO1`, the EC50 is reported as 326 nM.

In the case of `CC1Cc2c(sc(NC(=S)NC(=O)c3ccccc3)c2C(=O)O)CO1` (centres undefined), the EC50 is reported as 7980 nM.

`COc1cccc(C(=O)NC(=S)Nc2sc3c(c2C(=O)O)CC(C)(C)OC3)c1` was tested, and the EC50 was 1310 nM.

With `Cc1cccc(C(=O)NC(=S)Nc2sc3c(c2C(=O)O)CC(C)(C)OC3)c1` the “percent response of GTP binding” value was “inactive”.

In the case of `CC1(C)Cc2c(sc(NC(=O)NC(=O)c3ccccc3)c2C(=O)O)CO1`, the “percent response of GTP binding” value is reported as “inactive”.

In the case of `CC1(C)Cc2c(sc(NC(=S)NC(=O)c3cccc(F)c3)c2C(=O)O)CO1`, the EC50 is reported as 5830 nM.

Work on `CC(C)(C)C1Cc2c(sc(NC(=S)NC(=O)c3ccccc3)c2C(=O)O)CO1` (centres undefined) yielded an EC50 of 935 nM.

In the case of `CC1(C)Cc2c(sc(NC(=S)NC(=O)c3cccc(Br)c3)c2C(=O)O)CO1`, the EC50 is reported as 40600 nM.

`CC1(C)Cc2c(sc(NC(=S)NC(=O)c3ccc(Br)cc3)c2C(=O)O)CO1` gave an EC50 of 32100 nM.

`CC1(C)Cc2c(sc(NC(=S)Nc3ccccc3)c2C(=O)O)CO1` was tested, and the “percent response of GTP binding” value was “inactive”.

For `COc1ccc(C(=O)NC(=S)Nc2sc3c(c2C(=O)O)CC(C)(C)OC3)cc1`, the “percent response of GTP binding” value was “inactive”.

`CC1(C)Cc2c(sc(NC(=S)NC(=O)C3CCCCC3)c2C(=O)O)CO1` gave an EC50 of 3130 nM.

For `CC1(C)Cc2c(sc(NC(=S)NC(=O)c3ccccc3F)c2C(=O)O)CO1`, the EC50 was 2090 nM.

For `O=C(NC(=S)Nc1sc2c(c1C(=O)O)CCOC2)c1ccccc1`, the EC50 was 12500 nM and the “percent response of GTP binding” value was “inactive”.

In the case of `CC1(C)Cc2c(sc(NC(=S)NC(=O)c3ccc(F)cc3)c2C(=O)O)CO1`, the EC50 is reported as 692 nM.

For `O=C(NC(=S)Nc1sc2c(c1C(=O)O)CC1(CCCC1)OC2)c1ccccc1`, the “percent response of GTP binding” value was “inactive”.

`CC1(C)Cc2c(sc(NC(=S)NC(=O)c3ccccc3Br)c2C(=O)O)CO1` showed an EC50 of 29500 nM.

In the case of `CC1(C)Cc2c(sc(NC(=S)NC(=O)c3cccs3)c2C(=O)O)CO1`, the “percent response of GTP binding” value is reported as “inactive”.

For `Cc1ccccc1C(=O)NC(=S)Nc1sc2c(c1C(=O)O)CC(C)(C)OC2`, the EC50 was 1350 nM.

With `CC1(C)CCc2sc(NC(=S)NC(=O)c3ccccc3)c(C(=O)O)c2C1` the “percent response of GTP binding” value was “inactive”.

In the case of `COc1ccccc1C(=O)NC(=S)Nc1sc2c(c1C(=O)O)CC(C)(C)OC2`, the “percent response of GTP binding” value is reported as “inactive”.

With `Cc1ccc(C(=O)NC(=S)Nc2sc3c(c2C(=O)O)CC(C)(C)OC3)cc1` the “percent response of GTP binding” value was “inactive”.
